Measured values: patent publication US20250368633A1, “AZEPINE FUSED RING COMPOUND AS RIPK1 INHIBITOR AND USE THEREOF” (ARTIVILA BIOPHARMA, priority 2022, published 2025)

Legend:
U937 cells [1] = experiment: EC50 of necroptosis inhibition in U937 cells (TSZ-induced, CellTiter-Glo); type: cell-based; settings: Homo sapiens, U-937; TSZ (hTNF-α, SM-164, Z-VAD-FMK) 20 hours; 10 concentration points; read-out: EC50 intervals of necroptosis inhibition in U937 cells
In short: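 Luminescent ATP readout (CellTiter-Glo) after 20 h gave viability of TSZ-challenged U937 cells; compounds were added 15 min ahead of TNF-α/SM-164/Z-VAD-FMK. EC50 derived by variable-slope nonlinear regression of inhibition relative to no-TSZ and TSZ-alone controls.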

U937 cells [2] = experiment: Inhibition rate of compound (1 μM) on necroptosis of U937 cells (TSZ-induced, CellTiter-Glo); type: cell-based; settings: TSZ (hTNF-α, SM-164, Z-VAD-FMK) 20 hours
In short: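 Percent inhibition comes from ATP luminescence (CellTiter-Glo), referenced to wells without TSZ and wells with TSZ alone. The compound was added to U937 cells 15 min ahead of a TNF-α/SM-164/Z-VAD-FMK mix, followed by 20 h culture at 37° C, 5% CO2.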

RIPK1 kinase = molecular target: T1, RIPK1 kinase (Homo sapiens, UniProt Q13546); experiment: In vitro RIPK1 kinase activity assay (ADP-Glo), inhibition by compounds at 1 μM; type: biochemical; settings: compound 1 μM; ATP 10 μM; MBP substrate 100 μg/mL; read-out: RIPK1 kinase activity inhibition rate range
T1 construct: purchased Promega VA7593
T1 sequence (Q13546 1-671): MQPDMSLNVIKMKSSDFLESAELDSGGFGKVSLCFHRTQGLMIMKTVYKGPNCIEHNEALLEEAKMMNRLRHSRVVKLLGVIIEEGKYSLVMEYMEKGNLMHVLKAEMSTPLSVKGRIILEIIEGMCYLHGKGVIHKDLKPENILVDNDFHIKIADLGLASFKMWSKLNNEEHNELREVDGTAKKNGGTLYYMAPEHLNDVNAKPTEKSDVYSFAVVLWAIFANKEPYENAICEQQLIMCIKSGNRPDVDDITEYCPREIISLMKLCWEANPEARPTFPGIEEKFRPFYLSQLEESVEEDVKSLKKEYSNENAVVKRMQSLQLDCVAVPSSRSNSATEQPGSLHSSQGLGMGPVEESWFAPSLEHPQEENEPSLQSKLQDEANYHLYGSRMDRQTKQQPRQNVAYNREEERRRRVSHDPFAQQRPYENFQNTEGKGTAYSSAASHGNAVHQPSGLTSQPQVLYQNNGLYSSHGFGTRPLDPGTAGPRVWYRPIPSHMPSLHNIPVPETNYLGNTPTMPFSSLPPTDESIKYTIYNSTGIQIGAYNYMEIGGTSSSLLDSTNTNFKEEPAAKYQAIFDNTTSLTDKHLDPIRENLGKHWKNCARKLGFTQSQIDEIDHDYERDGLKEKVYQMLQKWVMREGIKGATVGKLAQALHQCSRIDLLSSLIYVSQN
In short: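 Read by ADP-Glo chemiluminescence as percent inhibition: RIPK1 kinase, 15-min room-temperature compound preincubation, then 1-h reaction with MBP (100 μg/mL final) and ATP (10 μM final). Enzyme level was set by titration.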

| Compound | inhibition at 1 µM (RIPK1 kinase) [%] | EC50 (U937 cells [1]) [µM] | Inhibition rate range of compounds (1 μM) on U937 cell necroptosis (U937 cells [2]) |
| --- | --- | --- | --- |
| CN1C(=O)C(NC(=O)C(=O)NCc2ccccc2)CCc2ccccc21 (stereo not drawn) [Example 68, N^1-benzyl-N^2-(1-methyl-2-oxo-2,3,4,5-tetrahydro-1H-benzo[b]azepin-3-yl)oxalamide] | ≥ 75 | 0.5 to 2 | B (B: 50-89%) |
| CN1C(=O)C(NC(=O)C(=O)NCCc2ccccc2)CCc2cccnc21 (stereo not drawn) [Example 69, N^1-(9-methyl-8-oxo-6,7,8,9-tetrahydro-5H-pyrido[2,3-b]azepin-7-yl)-N^2-phenethyloxalamide] | ≥ 75 | 0.5 to 2 | B (B: 50-89%) |
| CN1C(=O)[C@H](NC(=O)C(=O)NCCc2ccccc2)COc2ccc(Br)cc21 [Example 71, (R)—N^1-(7-bromo-5-methyl-4-oxo-2,3,4,5-tetrahydrobenzo[b][1,4]oxazepin-3-yl)-N^2-phenethyloxalamide] | 50 to 74 | 0.5 to 2 | B (B: 50-89%) |
| CN1C(=O)[C@@H](NC(=O)C(=O)NCCc2ccccc2)COc2ccc(C#CCn3ccnc3)cc21 [Example 72, (S)—N^1-(7-(3-(1H-imidazol-1-yl)prop-1-yn-1-yl)-5-methyl-4-oxo-2,3,4,5-tetrahydrobenzo[b][1,4]oxazepin-3-yl)-N^2-phenethyloxalamide] | ≥ 75 | < 0.1 | A (A: ≥90%) |
| CN1CCC(C#Cc2ccc3c(c2)N(C)C(=O)[C@@H](NC(=O)C(=O)NCCc2ccccc2)CO3)CC1 [Example 73, (S)—N^1-(5-methyl-7-((1-methylpiperidin-4-yl)ethynyl)-4-oxo-2,3,4,5-tetrahydrobenzo[b][1,4]oxazepin-3-yl)-N^2-phenethyloxalamide] | ≥ 75 | < 0.1 | A (A: ≥90%) |
| CN(C)c1ccc(C#Cc2ccc3c(c2)N(C)C(=O)[C@@H](NC(=O)C(=O)NCCc2ccccc2)CO3)cc1 [Example 75, (S)—N^1-(7-((4-(dimethylamino)phenyl)ethynyl)-5-methyl-4-oxo-2,3,4,5-tetrahydrobenzo[b][1,4]oxazepin-3-yl)-N^2-phenethyloxalamide] | 25 to 49 | < 0.1 | A (A: ≥90%) |
| CN1C(=O)[C@@H](NC(=O)C(=O)NCCc2ccccc2)COc2ccc(C#CCN3CCN(CCO)CC3)cc21 [Example 83, (S)—N^1-(7-(3-(4-(2-hydroxyethyl)piperazin-1-yl)prop-1-yn-1-yl)-5-methyl-4-oxo-2,3,4,5-tetrahydrobenzo[b][1,4]oxazepin-3-yl)-N^2-phenethyloxalamide] | ≥ 75 | < 0.1 | A (A: ≥90%) |
| CN1C(=O)[C@@H](NC(=O)C(=O)NCCc2ccccc2)COc2ccc(C#CCN)cc21.Cl [Example 87, (S)—N^1-(7-(3-aminoprop-1-yn-1-yl)-5-methyl-4-oxo-2,3,4,5-tetrahydrobenzo[b][1,4]oxazepin-3-yl)-N^2-phenethyloxalamide hydrochloride] | 25 to 49 | 0.5 to 2 | B (B: 50-89%) |
| CC(=O)N1CC(O)(C#Cc2ccc3c(c2)N(C)C(=O)[C@@H](NC(=O)C(=O)NCCc2ccccc2)CO3)C1 [Example 93, (S)—N^1-(7-((1-acetyl-3-hydroxyazetidin-3-yl)ethynyl)-5-methyl-4-oxo-2,3,4,5-tetrahydrobenzo[b][1,4]oxazepin-3-yl)-N^2-phenethyloxalamide] | ≥ 75 | 0.1 to 0.5 | A (A: ≥90%) |
| CN1C(=O)[C@@H](NC(=O)C(=O)NCCc2ccccc2)COc2ccc(C#CCCC(=O)O)cc21 [Example 95, (S)-5-(5-methyl-4-oxo-3-(2-oxo-2-(phenethylamino)acetamido)-2,3,4,5-tetrahydrobenzo[b][1,4]oxazepin-7-yl) pent-4-ynoic acid] | ≥ 75 | 0.5 to 2 | B (B: 50-89%) |

Continued, in another order:

| inhibition at 1 µM (RIPK1 kinase) [%] | Compound | EC50 (U937 cells [1]) [µM] | Inhibition rate range of compounds (1 μM) on U937 cell necroptosis (U937 cells [2]) |
| --- | --- | --- | --- |
| ≥ 75 | CN1C(=O)[C@@H](NC(=O)C(=O)NCCc2cccc(F)c2)COc2ccccc21 [Example 100, (S)—N^1-(3-fluorophenethyl)-N^2-(5-methyl-4-oxo-2,3,4,5-tetrahydrobenzo[b][1,4]oxazepin-3-yl)oxamalide] | 0.1 to 0.5 | B (B: 50-89%) |
| 25 to 49 | CN1C(=O)[C@@H](NC(=O)C(=O)NCc2cc(F)cc(F)c2)COc2ccccc21 [Example 102, (S)—N^1-(3,5-difluorobenzyl)-N^2-(5-methyl-4-oxo-2,3,4,5-tetrahydrobenzo[b][1,4]oxazepin-3-yl)oxalamide] | 0.5 to 2 | B (B: 50-89%) |
| ≥ 75 | CN1C(=O)[C@@H](NC(=O)C(=O)NCc2ccccc2)COc2ccc(C#CCN3CCC(O)CC3)cc21 [Example 105, (S)—N^1-benzyl-N^2-(7-(3-(4-hydroxypiperidin-1-yl)prop-1-yn-1-yl)-5-methyl-4-oxo-2,3,4,5-tetrahydrobenzo[b][1,4]oxazepin-3-yl)oxalamide] | < 0.1 | A (A: ≥90%) |
| ≥ 75 | Cc1ccccc1CNC(=O)C(=O)N[C@H]1COc2ccc(C#CCN3CCNC(=O)C3)cc2N(C)C1=O [Example 108, (S)—N^1-(5-methyl-4-oxo-7-(3-(3-oxopiperazin-1-yl)prop-1-yn-1-yl)-2,3,4,5-tetrahydrobenzo[b][1, 4]oxazepin-3-yl)-N^2-(2-methylbenzyl)oxalamide] | < 0.1 | A (A: ≥90%) |
| 50 to 74 | CN1C(=O)[C@@H](NC(=O)C(=O)NCCc2cccc(F)c2)COc2ccc(C#CC3CCCNC3)cc21 (stereo partly drawn) [Example 116, N^1-(3-fluorophenethyl)-N^2-((3S)-5-methyl-4-oxo-7-(piperidin-3-ylethynyl)-2,3,4,5-tetrahydrobenzo[b][1,4]oxazepin-3-yl)oxalamide] | 0.1 to 0.5 | A (A: ≥90%) |
| 25 to 49 | CN1C(=O)[C@@H](NC(=O)C(=O)NCCc2cccc(F)c2)COc2ccc(C#CCN3CCC(=O)C3)cc21 [Example 119, (S)—N^1-(3-fluorophenethyl)-N^2-(5-methyl-4-oxo-7-(3-(3-oxopyrrolidin-1-yl)prop-1-yn-1-yl)-2,3,4,5-tetrahydrobenzo[b][1,4]oxazepin-3-yl)oxalamide] | < 0.1 | A (A: ≥90%) |
| ≥ 75 | CN1C(=O)[C@@H](NC(=O)C(=O)NCCc2cccc(F)c2)COc2ccc(C#CCN3CCN(CCO)CC3)cc21 [Example 121, (S)—N^1-(3-fluorophenethyl)-N^2-(7-(3-(4-(2-hydroxyethyl)piperazin-1-yl)prop-1-yn-1-yl)-5-methyl-4-oxo-2,3,4,5-tetrahydrobenzo[b][1,4]oxazepin-3-yl)oxalamide] | < 0.1 | B (B: 50-89%) |
| 50 to 74 | C[C@H](NC(=O)C(=O)N[C@H]1COc2ccc(C#CCCO)cc2N(C)C1=O)c1ccccc1 [Example 124, N^1-((S)-7-(4-hydroxybut-1-yn-1-yl)-5-methyl-4-oxo-2,3,4,5-tetrahydrobenzo[b][1,4]oxazepin-3-yl)-N^2-((S)-1-phenylethyl)oxalamide] | 0.1 to 0.5 | A (A: ≥90%) |
| ≥ 75 | C[C@@H](NC(=O)C(=O)N[C@H]1COc2ccc(C#CC3COC3)cc2N(C)C1=O)c1ccccc1 [Example 131, (S)—N^1-(5-methyl-7-(oxetan-3-ylethynyl)-4-oxo-2,3,4,5-tetrahydrobenzo[b][1,4]oxazepin-3-yl)-N^2-((R)-1-phenylethyl)oxalamide] | < 0.1 | A (A: ≥90%) |
